Assay: Resistance test in acid medium (omeprazole content after neutralisation, over time)
Format: physicochemical
Details: stirred medium pH 1,2, 37,5°C; omeprazole assayed by HPLC after neutralisation to pH=6,8, over time; figure 1
Description: Pour déterminer la résistance au pH acide, les préparations sont placées en milieu agité à pH 1,2 à 37,5°C. La résistance au pH acide est déterminée par le dosage du taux d'Oméprazole après neutralisation à pH=6,8 en fonction du temps.
L'Oméprazole est dosée par HPLC après extraction.

COc1ccc2[nH]c([S+]([O-])Cc3ncc(C)c(OC)c3C)nc2c1 (stereo not shown) [Oméprazole libre, Oméprazole]
résistance au pH acide: dégradé en quelques minutes
